The source of these data is BindingDB's records for patent US20260008775 (Genentech, 2026).

A word on the Ki: it is the dissociation constant of the complex between target and ligand, obtained from inhibition or displacement. A lower Ki goes with tighter binding.

This assay addresses 3-beta-hydroxysteroid-Delta(8),Delta(7)-isomerase (Homo sapiens, UniProt Q15125). Description: Determination of Binding Affinity to EBP-7-Dehydrocholesterol Reductase. As to the method: The plates were sealed and incubated at 4° C. for 3 hrs. Then, the plates were washed with ice-cold assay buffer 3 times. […] Following this, the plate was centrifuged at 1000 rpm for 30 secs. The plate was then sealed and agitated at 600 rpm at 22° C. for 5 min, and then incubated at 22° C. for 3 hrs. The incubation was stopped by transferring the binding solution to the pre-treated UniFilter-96 GF/B plate, vacuum filtrated, and then washed four times with ice-cold assay buffer. Following this, the plates were dried at 37° C. for 45 min. The plates were then sealed at the bottom. 40 µl/well of scintillation cocktail was added to the plates.

Each structure is given as a SMILES string.

Chain of 3-beta-hydroxysteroid-Delta(8),Delta(7)-isomerase (Q15125 whole entry): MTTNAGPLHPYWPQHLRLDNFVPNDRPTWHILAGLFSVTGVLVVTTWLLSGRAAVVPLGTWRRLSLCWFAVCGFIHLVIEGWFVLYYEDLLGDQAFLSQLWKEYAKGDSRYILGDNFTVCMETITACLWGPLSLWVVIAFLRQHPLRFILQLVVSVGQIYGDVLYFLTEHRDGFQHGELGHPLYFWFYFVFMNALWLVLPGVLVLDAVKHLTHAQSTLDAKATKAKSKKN

For `CC(C)n1nc(-c2cncc(C(F)(F)F)c2)cc1[C@H]1[C@@H]2C[C@@H](N3CCOCC3)C[C@@H]21` [US20260008775, Example Table4.2], the Ki is 188 nM.
